Data set [1] deals with amastigotes of L. (V.) braziliensis (MHOM/BR/94/H-3227). More on the design: method as in ref 18 Teixeira et al. The following applies: 50 µg/mL, ref 18 Teixeira et al.; cited from earlier work.
Data set [2] deals with L. amazonensis amastigotes.
Protocol: (§1) The activity of lapachol and β-lapachone on intracellular amastigotes was made on peritoneal macrophages (5×10^5 per well). Cells were seeded onto round glass coverslips within 24-well plates in RPMI 1640 medium and incubated for 2 h at 37°C in 5% CO2. After that, the proportion of 6 parasites (L. amazonensis) per macrophage were added, and cultures were incubated for 4 h at 37°C in 5% CO2. Free parasites were removed by washing with RPMI 1640 medium. The infected macrophages were incubated with lapachol (82.28, 41.14, and 20.57 µg/mL) and β-lapachone (3.26, 1.63, and 0.815 µg/mL) for 24 h at 37°C. After the incubation time, the coverslips were removed, washed, stained with Fast Panoptic, and fixed on glass slides with Entellan. […] The experiments were done twice in triplicate, and treated uninfected cells were used as the cytotoxicity control and non-treated infected cells were used as the positive control of infection. The number of intracellular amastigotes was determined by counting 200 macrophages by concentration in an optical microscope (binocular biological microscope, mod. BA310E LED, Motic, Spain). The infection index was calculated by multiplying the percentage of infected macrophages by the number of parasites per macrophages ([29]).
Data set [3] relates to IL-2, IL-4, IL-6, IFN-γ, TNF-α, IL-17A, IL-10 production in murine macrophages. Description: Cytokine production in supernatant of amastigote assays (CBA Mouse Th1/Th2/Th17 kit). It is filed as cell-based, BALB/c mice. The following applies: 24 h; for IL-2, IL-4, IFN-γ, IL-17A, and IL-10 production: macrophages infected with L. amazonensis and treated; for IL-6 levels / TNF-α levels: uninfected and infected treated macrophages, all concentrations tested. Here is the method:
For the determination of cytokines, the supernatant of the amastigote assays stored at −80°C was used (MO, macrophages (negative control); MO + L. amazonensis (6 parasites/macrophage); samples treated with lapachol at IC50/2, IC50, and 2× IC50 with L. amazonensis (+) or without (-); the same was repeated for β-lapachone). The supernatant was centrifuged, and a 50 μL aliquot was used to determine cytokine levels (in pg/mL) using the BD Cytometric Bead Array (CBA) Mouse Th1/Th2/Th17 Cytokine kit (BD Life Sciences - Biosciences, USA). The dosage was performed in triplicate and according to the manufacturer's standards. This method is based on a suspension that contains beads, in which encoded fluorescent beads have cytokines that capture antibodies to bind the proteins. The final analysis was performed by flow cytometry using the BD FacsCalibur™ flow cytometer and CellQuest Pro software. The kit allows the measurement of seven distinct populations of Th1, Th2, and Th17 cytokines (IL-2, IL-4, IL-6, IFN-γ, TNF-α, IL-17A, and IL-10) in a single sample.

Data set [4] deals with L. amazonensis amastigotes. The experiment in a line: Activity on intracellular amastigotes in peritoneal macrophages (infection index). The following applies: 24 h; for Inhibition of infection rate of amastigotes (infection reduction): vs untreated infected macrophages.
Protocol: as §1
In data set [5] the test system is L. amazonensis promastigotes. Description: DNA fragmentation assay, agarose gel electrophoresis. It is filed as cell-based, Leishmania amazonensis. The following applies: IC50/24 h (lapachol 76.62 µg/mL, β-lapachone 1.63 µg/mL). Here is the method:
The presence of DNA fragmentation was evaluated by electrophoresis in agarose gel according to a previous study ([33]). L. amazonensis (1×10^6 promastigotes/mL) was incubated with the IC50 of compounds for 24 h. After validation of IC50 as mentioned above, pellets were re-suspended in digestion buffer (10 mM ethylenediamine tetraacetic acid [EDTA], 50 mM Tris-HCl [pH 8.0] and 0.5% sodium lauryl sulfate), to which 0.5 mg/mL proteinase K was added. The mixture was incubated for 3 h in […] and again for 1 h at 55°C in the presence of 0.1 mg/mL RNase A. DNA material was extracted by phenol/chloroform (1:1) treatment and was precipitated by adding 3 M sodium acetate and ice-cold ethanol (100%). After an overnight incubation at -20°C, the material was centrifuged (13270 g) for 30 min at 25°C temperature. Then, 2.5 volumes of ethanol (70%) were added to the pellet. The material was centrifuged (13270 g) for 15 min again and the pellet was collected, air dried, and re-suspended in Tris-EDTA buffer (50 µL, pH 8.0). DNA aliquots (10 µg) were electrophoresed on 2% agarose gel that contained ethidium bromide (0.5 µg/mL) using Tris-acetate-EDTA buffer (pH 8.0) for 45 min at 100 V and photographed under ultraviolet light. L. amazonensis untreated promastigotes were used as negative control of fragmentation (C-) and promastigotes treated with H2O2 as positive control (C+). […]

Data set [6] can be described thus: Macrophage cytotoxicity, XTT, J774A.1. The following applies: mouse, J774A.1 macrophages. (In general: Formazan colour is commonly taken as a measure of viable cells.)
Data set [7] relates to Leishmania major promastigotes. More on the design: method as in ref 24 Moreno et al. The following applies: 48 h of incubation, ref 24 Moreno et al.; cited from earlier work.
Setting [8] is: Leishmania amazonensis, Macrophage, read-out: Inhibition of infection rate of amastigotes (infection reduction).

In brackets after ≈: the same amount, converted by molar mass.

Data on two molecules can be found in paper PMC10229078, “In vitro effects of lapachol and β-lapachone against Leishmania amazonensis” (Brazilian Journal of Medical and Biological Research, 2023).

Usually inhibition stands for the relative decrease from the control value, in per cent. Usually CC50 stands for the concentration that lowers cell viability or growth by half. A low value points to greater toxicity to the cells. Usually IC50 stands for the point on the concentration scale where inhibition reaches its midpoint.

Consider “4-hydroxy-3-(3-methylbut-2-enyl)naphthalene-1,2-dione [lapachol]”, for which the “Inhibition of the infection rate of amastigotes” value in data set [1] was 88.8%. The molecule further gave an inhibition in data set [2] of 57.6%. In data set [3], the “IL-2, IL-4, IFN-γ, IL-17A, and IL-10 production” value is listed as “did not present significant changes”; the IL-6 levels result is on record as “decrease”; the TNF-α levels entry was “decrease”. Moreover, in data set [4] (20.57 µg/mL), the “Inhibition of infection rate of amastigotes (infection reduction)” value is 34.95%. Further, the “Inhibition of infection rate of amastigotes (infection reduction)” value in data set [4] (82.28 µg/mL) was determined as 83.11%. Besides, the DNA fragmentation result in data set [5] is reported as “promoted DNA fragmentation”.

Consider `CC1(C)CCC2=C(O1)c1ccccc1C(=O)C2=O` [β-lapachone, 2,2-dimethyl-3,4-dihydrobenzo[h]chromene-5,6-dione], for which half-maximal cytotoxicity in data set [6] (CC50 at 24 h) was put at 3.18 ± 0.04 µg/mL (≈ 13.1 µM). Further, in data set [3], the “IL-2, IL-4, IFN-γ, IL-17A, and IL-10 production” value is reported as “did not present significant changes”; the IL-6 levels result was “decrease”; the TNF-α levels entry was “decrease”. Further, in data set [4] (setting [8]), the inhibition at 0.815 µg/mL was 80.2%, the inhibition at 1.63 µg/mL was determined as 83.2% and the inhibition at 3.26 µg/mL was found to be 78.5%. The IC50 in data set [7] was 1.5 ± 0.7 µM. Further, the DNA fragmentation entry in data set [5] is “promoted DNA fragmentation”.
